Data reported in ChEMBL document CHEMBL1201862, “PubChem BioAssay data set” (2004).
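Protocol summary: plate cells (96-well), add compound at 5 concentrations, incubate 48 h, interpolate endpoints linearly. GI50 = concentration required for 50% inhibition of growth.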 The source made the active and inactive calls. Rule as the data show it: active = GI50 up to about 1.1 µM and inactive = higher.

Legend:
Experiment in all cases: NCI tumour cell line growth inhibition, 48 h
[1] = system: A498
[2] = system: A549
[3] = system: CAKI-1
[4] = system: CCRF-CEM
[5] = system: COLO 205
[6] = system: EKVX
[7] = system: HOP-92
[8] = system: HT-29
[9] = system: LOX IMVI
[10] = system: MOLT-4
[11] = system: SF-295
[12] = system: SF-539
[13] = system: SNB-19
[14] = system: SW-620
[15] = system: UACC-62
[16] = system: OVCAR-4
[17] = system: SNB-75

Measured: GI50

O=C(/C=C/c1ccccc1)/C=C/c1ccccc1O
inactive: [1] 30.1 µM | [2] 23.9 µM | [3] 22 µM | [4] 17 µM | [5] 17.3 µM | [6] 18.8 µM | [7] 83.8 µM | [8] 24.4 µM | [9] 18.2 µM | [10] 19.8 µM | [11] 24.4 µM | [12] 22 µM | [13] 23.3 µM | [14] 11.6 µM | [15] 19 µM

CCN(CC)c1c(C(=O)/C=C/c2ccc(OC)cc2)c(-c2ccccc2)nn(C)c1=O
inactive: [1] 20.9 µM | [2] 12 µM | [3] 29.8 µM | [4] 6.78 µM | [5] 3.87 µM | [6] 8 µM | [7] 6.07 µM | [8] 9.51 µM | [9] 14.9 µM | [10] 2.67 µM | [16] 8.75 µM | [11] 21.5 µM | [12] 17.1 µM | [13] 17.8 µM | [14] 26.5 µM | [15] 10.5 µM

COC(=O)C1=C(c2cc(OC)c(OC)c(OC)c2)OC(c2cc(OC)c(OC)c(OC)c2)C1COC(C)=O (configuration not stated)
inactive: [1] 51.5 µM | [2] 51.4 µM | [3] > 100 µM | [4] 41.8 µM | [5] 18.2 µM | [6] > 100 µM | [7] 10.3 µM | [8] 35.5 µM | [9] 20.8 µM | [10] 20.8 µM | [16] 29.6 µM | [11] 45.2 µM | [12] > 100 µM | [13] > 100 µM | [17] 74.6 µM | [14] 87.5 µM | [15] 30.5 µM

c1ccc(-c2[nH]c(-c3ccccc3)c(-c3cnccn3)c2-c2cnccn2)cc1
inactive: [1] > 100 µM | [2] > 100 µM | [3] > 100 µM | [4] > 100 µM | [5] > 100 µM | [6] > 100 µM | [7] > 100 µM | [8] 91.2 µM | [9] > 100 µM | [10] > 100 µM | [16] > 100 µM | [11] > 100 µM | [12] > 100 µM | [13] > 100 µM | [17] 31.9 µM | [14] > 100 µM | [15] > 100 µM

Nc1nc2c(nnn2C2C=C(CO)C(O)C2O)c(=O)[nH]1 (configuration not stated)
inactive: [1] > 100 µM | [2] > 100 µM | [3] 57.7 µM | [4] > 100 µM | [5] > 100 µM | [6] > 100 µM | [7] > 100 µM | [8] > 100 µM | [9] 27.9 µM | [10] 42.5 µM | [16] > 100 µM | [11] > 100 µM | [12] > 100 µM | [13] > 100 µM | [17] > 100 µM | [14] 66.4 µM | [15] 58.6 µM

CCc1cccc(CC)c1NC(=O)/C(Cl)=C(/Cl)C(=O)O
inactive: [1] > 100 µM | [2] > 69.5 µM | [3] 16.8 µM | [4] 6.44 µM | [5] 13.9 µM | [6] > 56.6 µM | [7] 21.7 µM | [8] 35 µM | [9] > 100 µM | [10] 9.25 µM | [16] 17.2 µM | [11] > 100 µM | [12] 33 µM | [13] > 100 µM | [17] 43.9 µM | [14] 21.2 µM | [15] 37.4 µM

CC1=NN(C(=O)Cc2ccccc2)C(=O)/C1=C\c1ccc(O)cc1
inactive: [1] > 100 µM | [2] > 100 µM | [3] > 100 µM | [4] > 100 µM | [5] > 100 µM | [6] > 100 µM | [7] > 100 µM | [8] > 100 µM | [9] > 100 µM | [10] > 100 µM | [16] > 100 µM | [11] > 100 µM | [12] > 100 µM | [13] > 100 µM | [14] > 100 µM | [15] > 100 µM

COC(=O)c1ccc(Cc2ccc(C(=O)OC)o2)o1
inactive: [2] > 378 µM | [3] > 378 µM | [4] > 378 µM | [5] > 378 µM | [6] > 378 µM | [7] > 378 µM | [8] > 378 µM | [9] > 378 µM | [10] > 378 µM | [11] > 378 µM | [12] > 378 µM | [13] 327 µM | [14] > 378 µM | [15] > 378 µM

Oc1ncnc2c1CCCN2
inactive: [2] > 100 µM | [3] > 100 µM | [4] > 100 µM | [5] > 100 µM | [6] > 100 µM | [7] > 100 µM | [8] > 100 µM | [9] > 100 µM | [10] > 100 µM | [11] > 100 µM | [13] > 100 µM | [17] > 100 µM | [14] > 100 µM | [15] > 100 µM

NNC(=S)N/N=C(\c1nc2ccc(Cl)cc2nc1O)C(O)c1ccc(Cl)cc1Cl (configuration not stated)
inactive: [1] > 100 µM | [2] > 100 µM | [3] > 100 µM | [4] > 100 µM | [5] > 100 µM | [6] > 100 µM | [7] > 100 µM | [8] > 100 µM | [9] > 100 µM | [10] > 100 µM | [16] > 100 µM | [11] > 100 µM | [12] > 100 µM | [13] > 100 µM | [17] > 100 µM | [14] > 100 µM | [15] > 100 µM

O=C(O)CN(c1ccc(Cl)cc1)S(=O)(=O)c1ccccc1
inactive: [1] > 100 µM | [2] > 100 µM | [3] > 100 µM | [4] > 100 µM | [5] 51.2 µM | [6] > 100 µM | [7] > 100 µM | [8] > 100 µM | [9] > 100 µM | [10] > 100 µM | [16] > 100 µM | [11] > 100 µM | [12] > 100 µM | [13] > 100 µM | [17] > 100 µM | [14] > 100 µM | [15] > 100 µM

CN1CC(=O)N(C)c2ncn(Cc3ccccc3)c2C1=O
inactive: [1] > 100 µM | [2] > 100 µM | [4] > 100 µM | [5] > 100 µM | [6] > 100 µM | [8] > 100 µM | [9] > 100 µM | [10] > 100 µM | [16] > 100 µM | [11] > 100 µM | [12] > 100 µM | [13] > 100 µM | [17] > 100 µM | [14] > 100 µM | [15] > 100 µM

Clc1ccc(CN2COc3c(cc(Cl)c4cccnc34)C2)cc1
inactive: [1] 12.1 µM | [2] 2.39 µM | [3] 2.62 µM | [4] 1.79 µM | [5] 16.2 µM | [6] 4.7 µM | [7] 3.64 µM | [8] 11.9 µM | [9] 1.38 µM | [10] 1.7 µM | [16] 3.33 µM | [11] 2.52 µM | [12] 2.03 µM | [13] 4.24 µM | [17] 3.4 µM | [14] 2.94 µM | [15] 1.55 µM

COC(=O)C(=O)C(C(=O)C1=NS(=O)(=O)c2cc(S(N)(=O)=O)c(Cl)cc2N1)c1nc2ccc(C(=O)c3ccccc3)cc2nc1O (configuration not stated)
inactive: [1] 51.5 µM | [2] > 100 µM | [3] 57.8 µM | [4] 75.5 µM | [5] > 100 µM | [6] > 100 µM | [8] > 100 µM | [10] 48.6 µM | [16] 81.5 µM | [11] 72.4 µM | [12] 90.6 µM | [13] > 100 µM | [14] > 100 µM | [15] 63.2 µM

Cc1ccc(Nc2ccc(Nc3ccc(C)cc3)c3c2C(=O)c2c(O)ccc(O)c2C3=O)cc1
inactive: [1] > 100 µM | [2] > 100 µM | [3] > 100 µM | [4] 67.6 µM | [5] > 100 µM | [6] > 100 µM | [7] > 100 µM | [9] > 100 µM | [10] > 100 µM | [16] > 100 µM | [11] > 100 µM | [12] 66.2 µM | [13] > 100 µM | [17] 68.4 µM | [14] > 100 µM | [15] > 100 µM

COC(=O)C1C(O)CC(c2ccccn2)N(Cc2ccccc2)C1c1ccccn1 (configuration not stated)
inactive: [1] > 100 µM | [2] > 100 µM | [3] > 100 µM | [4] > 100 µM | [5] > 100 µM | [6] > 100 µM | [7] > 100 µM | [8] > 100 µM | [9] > 100 µM | [10] 37.6 µM | [16] > 100 µM | [11] > 100 µM | [12] > 100 µM | [13] > 100 µM | [17] > 100 µM | [14] > 100 µM | [15] > 100 µM

CC1=C(C(=O)Nc2cccc(C(F)(F)F)c2)C(c2ccccc2F)C(C(=O)Nc2cccc(C(F)(F)F)c2)=C(C)N1
inactive: [1] 9.16 µM | [2] 4.58 µM | [3] 8.57 µM | [4] 3.09 µM | [5] 4.82 µM | [6] 3.94 µM | [7] 2.8 µM | [8] 3.66 µM | [9] 5.37 µM | [10] 2.6 µM | [16] 3.08 µM | [11] 6.52 µM | [12] 8.75 µM | [13] 7.16 µM | [17] 9.57 µM | [14] 7.08 µM
